Here are results for one compound from ChEMBL document CHEMBL4808208, “Hepatoselective Dihydroquinolizinone Bis-acids for HBsAg mRNA Degradation” (ACS Med Chem Lett, 2021).

One data set deals with Hepatitis B virus. Description: Antiviral activity against Hepatitis B virus infected in human HepG2.2.15 cells assessed as reduction in HBsAg level measured after 4 days by AlphaLisa assay. It counts as functional, organism-based. Conditions: HepG2.2.15, 96 h.
A short description of data set [1]: Cytotoxicity against human HepG2.2.15 cells assessed as reduction in cell viability measured after 4 days by CellTiter-Glo reagent based assay. More on the design: species or system HepG2 2.2.15. The note with it: time 4 day. Background: Cellular ATP, detected with luciferase, serves as a proxy for viable cell number.
The next data set has as its system OATP1B3. Kind of data set: Ratio of drug uptake in HEK293 cells transfected with OATP1B3 (unknown origin) in absence of transporter inhibitor, estradiol-17beta-glucuronide to drug uptake in HEK293 cells in absence of transporter inhibitor, estradiol-17beta-glucuronide by LC-MS/MS analysis. It counts as ADME, cell-based. The note with it: human, HEK293 cells transfected with OATP1B3 versus HEK293 cells.

Data set [2] addresses Terminal nucleotidyltransferase 4B (Homo sapiens) (UniProt Q8NDF8). Kind of data set: Inhibition of Myc-DDK-tagged human PAPD5 expressed in HEK293 cells assessed as inhibition of poly-adenylation reaction using P32-labeled RNA oligonucleotides (5'-GCCUUUCAUCUCUAACUGCGAAAAAAAAAA-3') as substrate measured for 20 mins by phosphor imaging analysis. The note with it: dose 0.37-10 µM.

The target in data set [3] is Terminal nucleotidyltransferase 4A (Homo sapiens) (UniProt Q5XG87). Kind of data set: Inhibition of human PAPD7 expressed in HEK293 cells assessed as inhibition of poly-adenylation reaction using P32-labeled RNA oligonucleotides (5'-GCCUUUCAUCUCUAACUGCGAAAAAAAAAA-3') as substrate measured for 3 hrs by phosphor imaging analysis. The format is cell-based. Conditions: dose 0.37-10 µM.

Data set [4] is described as follows: Metabolic stability in mouse liver microsomes assessed as half life preincubated with compound for 10 mins followed by NADPH regenerating system addition and measured for 60 mins by LC/MS-MS analysis. The format is ADME, Microsome. The note with it: time 70 min. Background: Liver microsomes are a subcellular fraction often used to study metabolism.
Data set [5] is described as follows: Apparent permeability of the compound across apical to basolateral side in human Caco-2 cells at 10 uM incubated for 1 hr. The format is ADME, cell-based.
Data set [6] can be described thus: Efflux ratio of apparent permeability in human Caco-2 cells at 10 uM incubated for 1 hr. It counts as ADME, cell-based.
The target in the next data set is T1, Cytochrome P450 2C8 (Homo sapiens, UniProt P10632).
T1 sequence (P10632 whole entry): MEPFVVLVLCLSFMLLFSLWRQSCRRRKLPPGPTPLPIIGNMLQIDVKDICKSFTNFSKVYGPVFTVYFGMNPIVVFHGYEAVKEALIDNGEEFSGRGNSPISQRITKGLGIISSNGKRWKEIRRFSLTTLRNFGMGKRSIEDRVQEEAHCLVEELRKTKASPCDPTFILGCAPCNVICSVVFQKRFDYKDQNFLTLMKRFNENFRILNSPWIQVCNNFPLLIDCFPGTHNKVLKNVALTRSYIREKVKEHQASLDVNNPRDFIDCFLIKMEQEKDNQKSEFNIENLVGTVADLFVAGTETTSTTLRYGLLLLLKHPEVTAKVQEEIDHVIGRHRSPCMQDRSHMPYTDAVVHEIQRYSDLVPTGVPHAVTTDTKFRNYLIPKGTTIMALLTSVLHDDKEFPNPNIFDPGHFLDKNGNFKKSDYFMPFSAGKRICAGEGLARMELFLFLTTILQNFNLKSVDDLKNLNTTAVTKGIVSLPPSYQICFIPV
Description: Inhibition of CYP2C8 in human liver microsomes using paclitaxel as substrate preincubated for 5 mins followed by NADPH addition by LC-MS/MS analysis. The format is ADME.

Another data set has as its target Cytochrome P450 2D6 (Homo sapiens, UniProt P10635). Description: Inhibition of CYP2D6 in human liver microsomes using dextromethorphan as substrate preincubated for 5 mins followed by NADPH addition by LC-MS/MS analysis. It counts as ADME.
Data set [7] is described as follows: Volume of distribution at steady state in CD-1 mouse at 3 mg/kg, iv measured for 24 hrs by LC-MS/MS analysis. The format is ADME, organism-based. The note with it: in vivo, read-out: Vdss.
A short description of data set [8]: Cmax in CD-1 mouse liver at 8 mg/kg, po measured for 24 hrs by LC-MS/MS analysis. The format is ADME, organism-based. More on the design: route oral, dose 8 mg/kg, time 24 hrs.
Data set [9] is described as follows: AUC (last) in CD-1 mouse liver at 8 mg/kg, po measured for 24 hrs by LC-MS/MS analysis. It counts as ADME, organism-based. More on the design: route oral, time 24 hrs, dose 8 mg/kg.
A short description of data set [10]: Drug concentration in CD-1 mouse liver at 8 mg/kg, po measured after 15 mins by LC-MS/MS analysis. The note with it: read-out: Ct. It counts as ADME, organism-based.
Data set [11] can be described thus: Drug concentration in CD-1 mouse liver at 8 mg/kg, po measured after 1 hr by LC-MS/MS analysis. The format is ADME, organism-based. Conditions: read-out: Ct.
The target in data set [12] is T2, Solute carrier organic anion transporter family member 1B1 (Homo sapiens, UniProt Q9Y6L6).
T2 sequence (Q9Y6L6 whole entry): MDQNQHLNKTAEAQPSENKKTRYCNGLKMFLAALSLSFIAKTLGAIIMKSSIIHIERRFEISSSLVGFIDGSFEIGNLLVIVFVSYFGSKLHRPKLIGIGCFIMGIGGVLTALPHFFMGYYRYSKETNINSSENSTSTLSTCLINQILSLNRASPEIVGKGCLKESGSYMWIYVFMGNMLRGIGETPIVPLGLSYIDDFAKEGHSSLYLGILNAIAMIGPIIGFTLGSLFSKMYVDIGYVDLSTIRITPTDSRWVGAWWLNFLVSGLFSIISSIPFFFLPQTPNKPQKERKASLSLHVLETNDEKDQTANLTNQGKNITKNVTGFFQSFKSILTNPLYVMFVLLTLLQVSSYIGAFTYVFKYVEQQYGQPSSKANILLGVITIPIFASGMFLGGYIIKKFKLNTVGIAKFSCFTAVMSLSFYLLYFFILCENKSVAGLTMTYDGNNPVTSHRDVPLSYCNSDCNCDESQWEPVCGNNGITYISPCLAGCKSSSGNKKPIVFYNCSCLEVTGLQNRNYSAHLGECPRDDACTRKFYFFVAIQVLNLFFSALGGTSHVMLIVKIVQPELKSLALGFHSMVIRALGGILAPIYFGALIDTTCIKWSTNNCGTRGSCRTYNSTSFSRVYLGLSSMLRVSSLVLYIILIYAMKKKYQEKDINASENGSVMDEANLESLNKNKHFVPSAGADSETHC
Kind of data set: Substrate activity at OATP1B1 (unknown origin) expressed in HEK293 cells assessed as ratio of drug uptake in absence of transporter inhibitor,estradiol-17beta-glucuronide to drug uptake in presence of transporter inhibitor, estradiol-17beta-glucuronide by LC-MS/MS analysis. The format is ADME, cell-based.

For a further data set, the system named is OATP1B1. Kind of data set: Ratio of drug uptake in HEK293 cells transfected with OATP1B1 (unknown origin) in absence of transporter inhibitor, estradiol-17beta-glucuronide to drug uptake in HEK293 cells in absence of transporter inhibitor, estradiol-17beta-glucuronide by LC-MS/MS analysis. It counts as ADME, cell-based. The note with it: human, HEK293 cells transfected with OATP1B1 versus HEK293 cells.

Broadly, the EC50 is the concentration giving half of the maximal effect. The CC50 is the concentration that lowers cell viability or growth by half. As usually defined, the half-life is the time in which the quantity being followed falls by half. A word on the Papp A→B: it is how fast a substance crosses the layer from the apical side. Usually efflux ratio stands for a quotient of directional permeabilities that is used to spot active efflux. By IC50 is commonly meant the concentration that gives 50% inhibition. For orientation: Cmax means the highest concentration seen after dosing. What is called AUC(0-t) is the area under the concentration-time curve up to a stated or last time point. A high value points to high exposure.

Values joined by “and” are separate entries in the source; they are usually repeats but may differ in a detail not shown here. Identical values can stand only once. Bounds are passed on as bounds.

Cytochrome P450 2D6, sequence (P10635 whole entry): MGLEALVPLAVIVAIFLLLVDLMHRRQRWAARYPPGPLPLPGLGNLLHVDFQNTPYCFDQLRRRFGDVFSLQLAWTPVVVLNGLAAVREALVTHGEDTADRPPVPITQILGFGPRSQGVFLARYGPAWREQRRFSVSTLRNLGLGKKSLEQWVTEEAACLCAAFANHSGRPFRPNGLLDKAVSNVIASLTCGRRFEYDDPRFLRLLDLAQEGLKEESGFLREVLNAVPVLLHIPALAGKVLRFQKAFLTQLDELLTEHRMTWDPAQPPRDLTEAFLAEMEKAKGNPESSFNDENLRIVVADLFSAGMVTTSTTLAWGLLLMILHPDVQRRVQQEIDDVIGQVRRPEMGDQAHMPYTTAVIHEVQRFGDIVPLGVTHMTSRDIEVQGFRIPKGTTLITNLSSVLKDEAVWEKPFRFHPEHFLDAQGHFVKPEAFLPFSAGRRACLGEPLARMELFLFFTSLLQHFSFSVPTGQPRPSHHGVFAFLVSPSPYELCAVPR
Terminal nucleotidyltransferase 4A (Homo sapiens), sequence (Q5XG87 whole entry): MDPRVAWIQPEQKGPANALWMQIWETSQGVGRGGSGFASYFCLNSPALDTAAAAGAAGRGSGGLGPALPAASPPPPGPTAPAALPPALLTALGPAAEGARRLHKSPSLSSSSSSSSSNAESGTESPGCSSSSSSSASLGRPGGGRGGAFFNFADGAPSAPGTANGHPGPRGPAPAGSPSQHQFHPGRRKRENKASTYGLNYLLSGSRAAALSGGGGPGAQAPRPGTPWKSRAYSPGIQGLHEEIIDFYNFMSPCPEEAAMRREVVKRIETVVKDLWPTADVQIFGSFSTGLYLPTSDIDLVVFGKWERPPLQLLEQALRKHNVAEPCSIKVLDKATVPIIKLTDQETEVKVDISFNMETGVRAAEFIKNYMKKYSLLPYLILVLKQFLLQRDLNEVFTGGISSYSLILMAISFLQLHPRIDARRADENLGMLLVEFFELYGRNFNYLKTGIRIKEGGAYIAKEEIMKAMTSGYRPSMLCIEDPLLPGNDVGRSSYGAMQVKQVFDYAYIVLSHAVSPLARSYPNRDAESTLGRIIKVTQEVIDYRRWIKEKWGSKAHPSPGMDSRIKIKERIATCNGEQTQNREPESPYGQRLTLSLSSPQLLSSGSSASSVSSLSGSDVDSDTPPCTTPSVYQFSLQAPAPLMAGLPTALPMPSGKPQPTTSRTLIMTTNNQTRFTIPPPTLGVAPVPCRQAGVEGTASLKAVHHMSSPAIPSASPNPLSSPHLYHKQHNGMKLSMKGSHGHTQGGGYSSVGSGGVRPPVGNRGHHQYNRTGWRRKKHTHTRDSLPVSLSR
Terminal nucleotidyltransferase 4B (Homo sapiens), sequence (Q8NDF8 whole entry): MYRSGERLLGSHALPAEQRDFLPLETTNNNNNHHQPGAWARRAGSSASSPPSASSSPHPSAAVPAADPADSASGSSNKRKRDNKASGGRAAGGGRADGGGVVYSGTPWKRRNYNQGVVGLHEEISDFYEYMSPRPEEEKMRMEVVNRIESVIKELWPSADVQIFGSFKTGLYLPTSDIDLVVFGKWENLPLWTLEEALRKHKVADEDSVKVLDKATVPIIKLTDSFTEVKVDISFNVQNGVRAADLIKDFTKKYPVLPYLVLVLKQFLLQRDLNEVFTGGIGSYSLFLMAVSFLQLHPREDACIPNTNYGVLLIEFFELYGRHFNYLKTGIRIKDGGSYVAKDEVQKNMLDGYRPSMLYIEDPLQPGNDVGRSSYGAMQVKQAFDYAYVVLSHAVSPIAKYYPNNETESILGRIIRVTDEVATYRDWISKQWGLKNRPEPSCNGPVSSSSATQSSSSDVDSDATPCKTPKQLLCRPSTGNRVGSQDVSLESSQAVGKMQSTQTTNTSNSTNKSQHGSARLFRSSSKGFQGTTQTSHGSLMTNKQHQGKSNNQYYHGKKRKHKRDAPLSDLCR

With `COc1cc2c(cc1OCCCCCCC(=O)O)C[C@@H](C(C)C)n1cc(C(=O)O)c(=O)cc1-2`, the EC50 in the data set on Hepatitis B virus is 0.023 µM. Moreover, the CC50 at 96 h in data set [1] was over 10 µM. Further, the uptake ratio in the data set on OATP1B3 came to 24.8; in the data set with OATP1B1, 19. For the same compound, the inhibition entry in data set [2] and in [3] was “Dose-Dependent Effect” each time. Further, the half-life in data set [4] was 28.9 h. For the same compound, the Papp A→B at 1 h, 10 µM in data set [5] turned out to be 0.39 ×10⁻⁶ cm/s. Further, the efflux ratio at 1 h, 10 µM in data set [6] came to 5.3. The 50% inhibitory concentration (IC50) against Cytochrome P450 2C8 and on Cytochrome P450 2D6 was over 10 µM each time. For the same compound, the Vd in [7] amounted to 3.26 L/kg. In data set [8], the maximum concentration (Cmax) was determined as 333 ng/mL. The AUC(0-t) at 24 h in data set [9] turned out to be 1310 ng·h/mL. In addition, the concentration at 0.25 h in data set [10] was 333 ng/mL and 730 nM. Also, in data set [11], the concentration at 1 h is 300 ng/mL and 660 nM. For the same compound, the Ratio in data set [12] stood at 11.17.
